Measurements as given in PubChem BioAssay (NCI).
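Growth conditions: 96-well plates. Treatment: test compound, 48 hours, 5 concentrations. Analysis: linear interpolation between bracketing concentrations; unreached endpoints set to highest concentration. Abbreviation: GI50, concentration required for 50% inhibition of growth. The concentration for full growth arrest is given as TGI.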

Legend:
Assay in all cases: inhibition of tumour cell growth, NCI panel, 48 h
[1] = tested on: LOX IMVI melanoma
[2] = tested on: HS 578T breast
[3] = tested on: OVCAR-3 ovarian
[4] = tested on: RPMI-8226 leukemia
[5] = tested on: OVCAR-8 ovarian
[6] = tested on: SF-539 CNS
[7] = tested on: PC-3 prostate
[8] = tested on: CAKI-1 renal
[9] = tested on: HCC-2998 colon
[10] = tested on: SW-620 colon
[11] = tested on: SK-MEL-28 melanoma
[12] = tested on: HOP-92 NSCLC
[13] = tested on: SN12C renal
[14] = tested on: NCI-H226 lung
[15] = tested on: UACC-62 melanoma
[16] = tested on: NCI-H460 lung
[17] = tested on: HL-60(TB) leukemia
[18] = tested on: UO-31 renal
[19] = tested on: M14 melanoma
[20] = tested on: MDA-MB-231 breast
[21] = tested on: UACC-257 melanoma
[22] = tested on: SK-OV-3 ovarian
[23] = tested on: BT-549 breast
[24] = tested on: HCT-15 colon
[25] = tested on: COLO 205 colon
[26] = tested on: CCRF-CEM leukemia
[27] = tested on: MDA-MB-468 breast
[28] = tested on: SR leukemia
[29] = tested on: IGROV1 ovarian
[30] = tested on: KM12 colon
[31] = tested on: SK-MEL-5 melanoma
[32] = tested on: NCI-H23 lung
[33] = tested on: ACHN renal
[34] = tested on: MALME-3M melanoma
[35] = tested on: OVCAR-5 ovarian
[36] = tested on: T-47D breast
[37] = tested on: DU-145 prostate
[38] = tested on: 786-0 renal
[39] = tested on: OVCAR-4 ovarian
[40] = tested on: SK-MEL-2 melanoma
[41] = tested on: HT29 colon
[42] = tested on: MDA-MB-435
[43] = tested on: TK-10 renal

Compound: CN(C)CCCNC(=S)Nc1ccc(/C=C/c2ccc(Cl)cc2)cc1
- GI50 [1]: 1640 nM
- TGI [1]: 3.09 µM
- GI50 [2]: 1860 nM
- TGI [2]: 4.52 µM
- GI50 [3]: 1440 nM
- TGI [3]: 3.11 µM
- GI50 [4]: 2550 nM
- TGI [4]: 7.33 µM
- GI50 [5]: 1980 nM
- TGI [5]: 4.1 µM
- GI50 [6]: 1680 nM
- TGI [6]: 3.05 µM
- GI50 [7]: 1640 nM
- TGI [7]: 3.24 µM
- GI50 [8]: 1540 nM
- TGI [8]: 2960 nM
- GI50 [9]: 1640 nM
- TGI [9]: 3.14 µM
- GI50 [10]: 1670 nM
- TGI [10]: 3.14 µM
- GI50 [11]: 1790 nM
- TGI [11]: 3.2 µM
- GI50 [12]: 1350 nM
- TGI [12]: 2990 nM
- GI50 [13]: 1680 nM
- TGI [13]: 3.13 µM
- GI50 [14]: 8.41 µM
- TGI [14]: 38.2 µM
- GI50 [15]: 1750 nM
- TGI [15]: 3.17 µM
- GI50 [16]: 1540 nM
- TGI [16]: 3.01 µM
- GI50 [17]: 1670 nM
- TGI [17]: 3.93 µM
- GI50 [18]: 1580 nM
- TGI [18]: 2940 nM
- GI50 [19]: 1770 nM
- TGI [19]: 3.62 µM
- GI50 [20]: 1620 nM
- TGI [20]: 3.03 µM
- GI50 [21]: 1640 nM
- TGI [21]: 3.24 µM
- GI50 [22]: 2030 nM
- TGI [22]: 4.16 µM
- GI50 [23]: 2890 nM
- TGI [23]: 8.87 µM
- GI50 [24]: 1530 nM
- TGI [24]: 3.03 µM
- GI50 [25]: 1880 nM
- TGI [25]: 3.64 µM
- GI50 [26]: 1630 nM
- TGI [26]: 3.43 µM
- GI50 [27]: 1640 nM
- TGI [27]: 3.07 µM
- GI50 [28]: 1940 nM
- TGI [28]: 5.1 µM
- GI50 [29]: 1780 nM
- TGI [29]: 3.31 µM
- GI50 [30]: 1820 nM
- TGI [30]: 3.4 µM
- GI50 [31]: 1720 nM
- TGI [31]: 3.09 µM
- GI50 [32]: 2020 nM
- TGI [32]: 4.44 µM
- GI50 [33]: 1780 nM
- TGI [33]: 3.19 µM
- GI50 [34]: 1750 nM
- TGI [34]: 3.14 µM
- GI50 [35]: 1610 nM
- TGI [35]: 3.09 µM
- GI50 [36]: 1880 nM
- TGI [36]: 4.1 µM
- GI50 [37]: 1750 nM
- TGI [37]: 3.33 µM
- GI50 [38]: 1620 nM
- TGI [38]: 3.36 µM
- GI50 [39]: 1920 nM
- TGI [39]: 4.35 µM
- GI50 [40]: 1870 nM
- TGI [40]: 3.57 µM
- GI50 [41]: 2140 nM
- TGI [41]: 4.72 µM
- GI50 [42]: 1580 nM
- TGI [42]: 3.06 µM
- GI50 [43]: 1870 nM
- TGI [43]: 3.56 µM
